The results in this text go back to patent US7649093B2, “Naphthalene compounds as selective estrogen receptor modulators” (Glaxo Smith Kline LLC, priority 2004, dated 2010).

The term melting point denotes the temperature of the solid-liquid transition. Regarding `CCc1cc2cc(O)ccc2c(Oc2ccc(/C=C/C(=O)O)cc2)c1-c1ccccc1` [Example 11, (2E)-3-{4-[(3-Ethyl-6-hydroxy-2-phenyl-1-naphthalenyl)oxy]phenyl}-2-propenoic acid], the melting point was 188 to 190 °C. Regarding `COCc1cc2ccccc2c(Oc2ccc(/C=C/C(=O)O)cc2)c1-c1ccccc1`, the melting point was 76 to 79 °C. The result for `CCCCc1cc2cc(O)ccc2c(Oc2ccc(/C=C/C(=O)O)cc2)c1-c1ccccc1` [Example 14, (2E)-3-{4-[(3-Butyl-6-hydroxy-2-phenyl-1-naphthalenyl)oxy]phenyl}-2-propenoic acid] reads 128 to 130 °C; that for `CCCCCCCCc1cc2cc(O)ccc2c(Oc2ccc(/C=C/C(=O)O)cc2)c1-c1ccccc1` [Example 29, (2E)-3-{4-[(6-Hydroxy-3-octyl-2-phenyl-1-naphthalenyl)oxy]phenyl}-2-propenoic acid], 163 to 164 °C. In turn, `Cc1cc2ccccc2c(Oc2ccc(/C=C/C(=O)O)cc2)c1-c1ccccc1` [Example 15, (2E)-3-{4-[(3-Methyl-2-phenyl-1-naphthalenyl)oxy]phenyl}-2-propenoic acid] registered a melting point of 224 to 225 °C. For `O=C(O)/C=C/c1ccc(Oc2c(-c3ccccc3)c(CCC(F)(F)F)cc3cc(O)ccc23)cc1` [Example 19, (2E)-3-(4-{[6-Hydroxy-2-phenyl-3-(3,3,3-trifluoropropyl)-1-naphthalenyl]oxy}phenyl)-2-propenoic acid], the melting point is 118 to 120 °C. The result for `Cc1cc2cc(O)ccc2c(Oc2ccc(/C=C/C(=O)O)cc2)c1-c1ccc(O)cc1` [Example 10, (2E)-3-(4-{[6-Hydroxy-2-(4-hydroxyphenyl)-3-methyl-1-naphthalenyl]oxy}phenyl)-2-propenoic acid] reads 162 to 164 °C; that for `CCCCCc1cc2cc(O)ccc2c(Oc2ccc(/C=C/C(=O)O)cc2)c1-c1ccccc1` [Example 18, (2E)-3-{4-[(6-Hydroxy-3-pentyl-2-phenyl-1-naphthalenyl)oxy]phenyl}-2-propenoic acid], 110 to 113 °C; that for `CCc1cc2cc(O)ccc2c(Oc2ccc(/C=C/C(=O)N3CCN(C)CC3)cc2)c1-c1ccccc1` [Example 12, 7-Ethyl-5-({4-[(1E)-3-(4-methyl-1-piperazinyl)-3-oxo-1-propen-1-yl]phenyl}oxy)-6-phenyl-2-naphthalenol], 195 to 196 °C. In the case of `CCCCc1cc2ccccc2c(Oc2ccc(/C=C/C(=O)O)cc2)c1-c1ccccc1` [Example 26, (2E)-3-{4-[(3-Butyl-2-phenyl-1-naphthalenyl)oxy]phenyl}-2-propenoic acid] it was 160 to 161 °C. The result for `CCCCc1cc2ccccc2c(Oc2ccc(/C=C/C(=O)O)cc2)c1-c1ccc(F)cc1` [Example 24, (2E)-3-(4-{[3-Butyl-2-(4-fluorophenyl)-1-naphthalenyl]oxy}phenyl)-2-propenoic acid] reads 169 to 170 °C; that for `CCCc1cc2cc(O)c(F)cc2c(Oc2ccc(/C=C/C(=O)O)cc2)c1-c1ccccc1` [Example 20, (2E)-3-{4-[(7-Fluoro-6-hydroxy-2-phenyl-3-propyl-1-naphthalenyl)oxy]phenyl}-2-propenoic acid], 118 to 120 °C. On to `O=C(O)c1ccc(Oc2c(-c3ccc(O)cc3)c(C(F)(F)F)cc3ccccc23)cc1` [Example 28, 4-{[2-(4-Hydroxyphenyl)-3-(trifluoromethyl)-1-naphthalenyl]oxy}benzoic acid], for which the melting point fell in the range of 244 to 245 °C. With `CC(C)c1cc2cc(O)ccc2c(Oc2ccc(/C=C/C(=O)O)cc2)c1-c1ccccc1` [Example 13, (2E)-3-(4-{[6-Hydroxy-3-(1-methylethyl)-2-phenyl-1-naphthalenyl]oxy}phenyl)-2-propenoic acid], the melting point was 198 to 199 °C.

Turning to `O=C(O)/C=C/c1ccc(Oc2c(-c3ccccc3)c(C(F)(F)F)cc3ccccc23)cc1` [Example 27, (2E)-3-(4-{[2-Phenyl-3-(trifluoromethyl)-1-naphthalenyl]oxy}phenyl)-2-propenoic acid], the melting point was in the range of 210 to 211 °C. In the case of `CCCc1cc2cc(O)ccc2c(Oc2ccc(/C=C/C(=O)O)cc2)c1-c1ccccc1` [Example 16, (2E)-3-{4-[(6-Hydroxy-2-phenyl-3-propyl-1-naphthalenyl)oxy]phenyl}-2-propenoic acid] it was 120 to 122 °C; in that of `CC(C)Cc1cc2cc(O)ccc2c(Oc2ccc(/C=C/C(=O)O)cc2)c1-c1ccccc1` [Example 17, (2E)-3-(4-{[6-Hydroxy-3-(2-methylpropyl)-2-phenyl-1-naphthalenyl]oxy}phenyl)-2-propenoic acid], 126 to 128 °C; in that of `CCCCc1cc2ccccc2c(Oc2ccc(/C=C/C(=O)O)cc2)c1-c1ccc(O)cc1`, 107 to 109 °C.

In the case of `O=C(O)/C=C/c1ccc(Oc2c(-c3ccccc3)c(C3CC3)cc3cc(O)ccc23)cc1` [Example 22, (2E)-3-{4-[(3-Cyclopropyl-6-hydroxy-2-phenyl-1-naphthalenyl)oxy]phenyl}-2-propenoic acid], the melting point fell in the range of 242 to 243 °C. On to `CCCc1cc2cc(O)c(F)cc2c(Oc2ccc(/C=C/C(N)=O)cc2)c1-c1ccccc1` [Example 25, (2E)-3-{4-[(7-Fluoro-6-hydroxy-2-phenyl-3-propyl-1-naphthalenyl)oxy]phenyl}-2-propenamide], for which the melting point is 121 to 124 °C.
